The kinase profiling compilation of Christmann-Franck et al. (2016)

Experiments:
Assay in all cases: KINOMEscan competition binding
Conditions in all cases: compound 10.0 µM
DAPK2 (human) = DAPK2 (human) (UniProt Q9UIK4)
AURKA (human) = AURKA (human) (UniProt O14965)
MAPK14 (human) = MAPK14 (human) (UniProt Q16539)
MAP3K7 (human) = MAP3K7 (human) (UniProt O43318)
EPHA7 (human) = EPHA7 (human) (UniProt Q15375)
PRKACA (human) = PRKACA (human) (UniProt P17612)
ACVR2B (human) = ACVR2B (human) (UniProt Q13705)
FYN (human) = FYN (human) (UniProt P06241)
MAP3K9 (human) = MAP3K9 (human) (UniProt P80192)
PKMYT1 (human) = PKMYT1 (human) (UniProt Q99640)
TGFBR2 (human) = TGFBR2 (human) (UniProt P37173)
MAPK7 (human) = MAPK7 (human) (UniProt Q13164)
PLK3 (human) = PLK3 (human) (UniProt Q9H4B4)
MAP2K3 (human) = MAP2K3 (human) (UniProt P46734)
RPS6KA5 KD2 (human) = RPS6KA5 KD2 (human) (UniProt O75582)
INSR (human) = INSR (human) (UniProt P06213)
LIMK2 (human) = LIMK2 (human) (UniProt P53671)
CLK3 (human) = CLK3 (human) (UniProt P49761)
ULK2 (human) = ULK2 (human) (UniProt Q8IYT8)
ROCK2 (human) = ROCK2 (human) (UniProt O75116)
FLT3 (human) = FLT3 (human) (UniProt P36888)
BRSK1 (human) = BRSK1 (human) (UniProt Q8TDC3)
BMPR1A (human) = BMPR1A (human) (UniProt P36894)
MAPK4 (human) = MAPK4 (human) (UniProt P31152)
CAMK2A (human) = CAMK2A (human) (UniProt Q9UQM7)
ADCK3 (human) = ADCK3 (human) (UniProt Q8NI60)
PHKG2 (human) = PHKG2 (human) (UniProt P15735)
CSF1R (human) = CSF1R (human) (UniProt P07333)
EPHA4 (human) = EPHA4 (human) (UniProt P54764)
TLK1 (human) = TLK1 (human) (UniProt Q9UKI8)
DCLK1 (human) = DCLK1 (human) (UniProt O15075)
PAK7 (human) = PAK7 (human) (UniProt Q9P286)
INSRR (human) = INSRR (human) (UniProt P14616)
FRK (human) = FRK (human) (UniProt P42685)
DDR2 (human) = DDR2 (human) (UniProt Q16832)
CSNK1A1L (human) = CSNK1A1L (human) (UniProt Q8N752)
CAMK2G (human) = CAMK2G (human) (UniProt Q13555)
STK11 (human) = STK11 (human) (UniProt Q15831)
HIPK1 (human) = HIPK1 (human) (UniProt Q86Z02)
SIK2 (human) = SIK2 (human) (UniProt Q9H0K1)

Chain of MAP3K7 (human) (O43318 whole entry, looked up): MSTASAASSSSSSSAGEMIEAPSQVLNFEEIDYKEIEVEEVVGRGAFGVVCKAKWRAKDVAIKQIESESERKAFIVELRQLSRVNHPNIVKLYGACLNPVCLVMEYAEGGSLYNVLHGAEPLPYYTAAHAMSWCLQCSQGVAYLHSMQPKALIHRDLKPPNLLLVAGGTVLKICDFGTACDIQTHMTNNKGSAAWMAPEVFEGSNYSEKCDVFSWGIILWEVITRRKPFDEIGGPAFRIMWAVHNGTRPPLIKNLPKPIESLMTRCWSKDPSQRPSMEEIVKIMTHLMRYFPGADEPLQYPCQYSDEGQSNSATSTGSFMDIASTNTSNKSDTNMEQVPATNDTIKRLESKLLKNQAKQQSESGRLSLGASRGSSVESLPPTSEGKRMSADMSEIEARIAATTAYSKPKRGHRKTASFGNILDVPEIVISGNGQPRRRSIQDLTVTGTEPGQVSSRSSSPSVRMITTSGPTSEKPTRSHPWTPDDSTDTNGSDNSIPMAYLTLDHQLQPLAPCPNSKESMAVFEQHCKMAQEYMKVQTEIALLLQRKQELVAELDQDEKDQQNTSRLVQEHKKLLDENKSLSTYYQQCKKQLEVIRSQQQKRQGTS
Chain of ADCK3 (human) (Q8NI60 whole entry, looked up): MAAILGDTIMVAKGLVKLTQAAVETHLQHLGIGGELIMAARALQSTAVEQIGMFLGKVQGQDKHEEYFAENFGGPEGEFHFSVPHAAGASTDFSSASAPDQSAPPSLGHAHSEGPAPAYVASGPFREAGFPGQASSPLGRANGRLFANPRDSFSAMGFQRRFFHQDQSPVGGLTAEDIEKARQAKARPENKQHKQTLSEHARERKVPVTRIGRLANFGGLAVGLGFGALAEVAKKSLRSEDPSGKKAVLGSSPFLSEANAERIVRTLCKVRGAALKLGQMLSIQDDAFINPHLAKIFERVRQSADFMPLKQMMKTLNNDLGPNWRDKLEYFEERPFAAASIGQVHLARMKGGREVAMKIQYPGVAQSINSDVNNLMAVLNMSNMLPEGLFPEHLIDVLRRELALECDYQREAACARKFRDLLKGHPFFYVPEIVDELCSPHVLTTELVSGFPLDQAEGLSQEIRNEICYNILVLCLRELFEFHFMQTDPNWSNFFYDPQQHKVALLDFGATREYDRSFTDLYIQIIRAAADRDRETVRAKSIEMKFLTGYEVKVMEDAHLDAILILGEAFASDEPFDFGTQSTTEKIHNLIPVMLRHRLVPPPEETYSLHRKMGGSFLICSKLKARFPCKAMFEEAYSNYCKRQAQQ
Chain of EPHA4 (human) (P54764 whole entry, looked up): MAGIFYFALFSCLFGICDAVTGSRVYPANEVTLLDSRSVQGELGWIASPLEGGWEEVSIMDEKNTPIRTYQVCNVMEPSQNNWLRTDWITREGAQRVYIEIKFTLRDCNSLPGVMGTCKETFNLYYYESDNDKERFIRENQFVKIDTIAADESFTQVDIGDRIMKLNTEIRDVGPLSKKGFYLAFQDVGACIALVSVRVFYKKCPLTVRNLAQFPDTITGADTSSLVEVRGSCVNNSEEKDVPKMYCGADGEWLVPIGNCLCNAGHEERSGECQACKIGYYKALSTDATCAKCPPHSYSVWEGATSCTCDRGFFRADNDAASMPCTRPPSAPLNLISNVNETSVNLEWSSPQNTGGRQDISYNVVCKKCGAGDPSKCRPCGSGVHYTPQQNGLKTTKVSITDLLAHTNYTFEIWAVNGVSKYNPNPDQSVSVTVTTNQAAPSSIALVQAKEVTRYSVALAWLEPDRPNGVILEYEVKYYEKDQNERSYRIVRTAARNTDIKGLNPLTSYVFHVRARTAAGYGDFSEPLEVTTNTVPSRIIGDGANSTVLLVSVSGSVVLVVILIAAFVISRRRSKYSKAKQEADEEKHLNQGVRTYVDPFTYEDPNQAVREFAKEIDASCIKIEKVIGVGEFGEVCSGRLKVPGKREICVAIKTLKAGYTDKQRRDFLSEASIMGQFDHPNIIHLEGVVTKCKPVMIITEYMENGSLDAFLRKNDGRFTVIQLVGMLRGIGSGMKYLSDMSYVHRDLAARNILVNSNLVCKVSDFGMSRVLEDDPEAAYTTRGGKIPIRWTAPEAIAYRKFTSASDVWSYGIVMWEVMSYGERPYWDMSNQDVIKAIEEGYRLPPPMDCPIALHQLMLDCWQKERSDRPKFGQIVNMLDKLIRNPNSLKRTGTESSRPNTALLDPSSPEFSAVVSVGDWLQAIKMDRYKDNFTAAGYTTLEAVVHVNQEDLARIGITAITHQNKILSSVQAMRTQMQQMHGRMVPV
Chain of TLK1 (human) (Q9UKI8 whole entry, looked up): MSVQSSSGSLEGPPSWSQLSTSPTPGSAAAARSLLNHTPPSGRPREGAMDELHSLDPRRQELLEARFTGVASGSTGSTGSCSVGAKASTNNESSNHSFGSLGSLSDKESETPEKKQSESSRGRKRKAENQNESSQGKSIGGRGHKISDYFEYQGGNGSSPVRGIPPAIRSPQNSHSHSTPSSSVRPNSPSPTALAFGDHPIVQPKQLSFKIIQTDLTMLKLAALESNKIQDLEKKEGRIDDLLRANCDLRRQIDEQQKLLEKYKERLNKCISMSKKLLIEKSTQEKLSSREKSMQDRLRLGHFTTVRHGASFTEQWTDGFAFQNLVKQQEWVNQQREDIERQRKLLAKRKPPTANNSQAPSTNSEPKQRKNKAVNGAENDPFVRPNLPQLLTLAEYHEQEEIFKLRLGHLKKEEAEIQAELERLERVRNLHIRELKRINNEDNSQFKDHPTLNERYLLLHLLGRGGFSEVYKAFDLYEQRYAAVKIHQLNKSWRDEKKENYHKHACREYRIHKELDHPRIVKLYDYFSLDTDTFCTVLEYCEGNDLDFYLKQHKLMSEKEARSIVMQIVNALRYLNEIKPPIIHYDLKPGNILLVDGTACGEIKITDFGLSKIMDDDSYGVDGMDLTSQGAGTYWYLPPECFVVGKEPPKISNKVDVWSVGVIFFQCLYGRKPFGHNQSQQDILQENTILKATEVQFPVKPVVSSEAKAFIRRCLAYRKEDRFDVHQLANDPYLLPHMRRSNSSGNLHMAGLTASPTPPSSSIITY
Chain of CSNK1A1L (human) (Q8N752 whole entry, looked up): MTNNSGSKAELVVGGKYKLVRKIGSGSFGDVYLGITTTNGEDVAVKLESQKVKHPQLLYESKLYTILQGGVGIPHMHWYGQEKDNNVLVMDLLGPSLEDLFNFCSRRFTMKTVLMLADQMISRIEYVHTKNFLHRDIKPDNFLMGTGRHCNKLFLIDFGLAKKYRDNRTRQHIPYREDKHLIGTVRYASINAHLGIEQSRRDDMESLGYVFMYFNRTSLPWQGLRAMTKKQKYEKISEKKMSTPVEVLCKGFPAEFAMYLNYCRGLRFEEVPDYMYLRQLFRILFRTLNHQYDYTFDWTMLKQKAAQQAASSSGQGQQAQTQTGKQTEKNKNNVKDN
Chain of BRSK1 (human) (Q8TDC3 whole entry, looked up): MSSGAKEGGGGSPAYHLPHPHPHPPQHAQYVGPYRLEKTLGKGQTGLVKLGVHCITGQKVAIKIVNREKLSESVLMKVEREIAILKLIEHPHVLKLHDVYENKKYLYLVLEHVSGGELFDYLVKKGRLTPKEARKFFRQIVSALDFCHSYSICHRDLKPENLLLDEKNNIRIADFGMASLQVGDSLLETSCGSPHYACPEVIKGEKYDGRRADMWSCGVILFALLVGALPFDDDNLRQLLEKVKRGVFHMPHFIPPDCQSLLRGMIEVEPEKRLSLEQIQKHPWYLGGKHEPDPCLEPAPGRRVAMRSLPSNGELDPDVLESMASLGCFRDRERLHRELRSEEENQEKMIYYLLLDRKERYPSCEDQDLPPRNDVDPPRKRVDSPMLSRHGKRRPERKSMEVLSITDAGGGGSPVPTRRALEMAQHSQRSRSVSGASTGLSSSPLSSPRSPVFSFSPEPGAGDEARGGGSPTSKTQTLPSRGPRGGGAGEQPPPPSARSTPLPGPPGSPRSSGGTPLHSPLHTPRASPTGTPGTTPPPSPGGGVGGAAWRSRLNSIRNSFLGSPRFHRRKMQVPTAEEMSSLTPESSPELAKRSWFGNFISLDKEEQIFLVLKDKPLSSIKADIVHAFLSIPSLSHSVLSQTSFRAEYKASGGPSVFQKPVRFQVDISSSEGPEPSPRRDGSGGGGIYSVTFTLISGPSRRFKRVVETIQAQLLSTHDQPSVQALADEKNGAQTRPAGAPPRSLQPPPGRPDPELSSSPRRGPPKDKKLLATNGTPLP
Chain of CLK3 (human) (P49761 whole entry, looked up): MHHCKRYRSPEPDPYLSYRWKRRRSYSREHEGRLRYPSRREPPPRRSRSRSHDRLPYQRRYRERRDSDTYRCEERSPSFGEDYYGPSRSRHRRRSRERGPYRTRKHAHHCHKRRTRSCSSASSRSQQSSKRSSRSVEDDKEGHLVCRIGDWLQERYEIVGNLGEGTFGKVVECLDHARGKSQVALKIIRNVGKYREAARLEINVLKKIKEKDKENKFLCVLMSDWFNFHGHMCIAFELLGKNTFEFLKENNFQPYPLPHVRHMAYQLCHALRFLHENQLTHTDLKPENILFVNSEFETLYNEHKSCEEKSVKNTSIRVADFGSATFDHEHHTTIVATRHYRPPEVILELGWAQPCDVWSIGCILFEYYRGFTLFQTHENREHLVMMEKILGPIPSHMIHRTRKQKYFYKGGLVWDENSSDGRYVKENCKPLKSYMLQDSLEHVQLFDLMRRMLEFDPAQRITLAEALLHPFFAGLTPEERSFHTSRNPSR
Chain of MAPK14 (human) (Q16539 whole entry, looked up): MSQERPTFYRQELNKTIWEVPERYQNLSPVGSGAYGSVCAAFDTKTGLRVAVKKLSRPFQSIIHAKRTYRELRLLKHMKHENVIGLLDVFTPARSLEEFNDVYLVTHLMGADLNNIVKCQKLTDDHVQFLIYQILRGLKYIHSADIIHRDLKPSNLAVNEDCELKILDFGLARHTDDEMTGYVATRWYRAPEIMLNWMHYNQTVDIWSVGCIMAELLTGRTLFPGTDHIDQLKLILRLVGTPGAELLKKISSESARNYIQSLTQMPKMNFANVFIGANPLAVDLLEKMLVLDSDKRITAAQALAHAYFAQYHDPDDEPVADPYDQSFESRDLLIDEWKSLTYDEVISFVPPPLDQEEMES

SMILES	kinase still bound, per cent of control (DAPK2 (human))	kinase still bound, per cent of control (AURKA (human))	kinase still bound, per cent of control (MAPK14 (human))	kinase still bound, per cent of control (MAP3K7 (human))	kinase still bound, per cent of control (EPHA7 (human))	kinase still bound, per cent of control (PRKACA (human))	kinase still bound, per cent of control (ACVR2B (human))	kinase still bound, per cent of control (FYN (human))	kinase still bound, per cent of control (MAP3K9 (human))	kinase still bound, per cent of control (PKMYT1 (human))	kinase still bound, per cent of control (TGFBR2 (human))	kinase still bound, per cent of control (MAPK7 (human))	kinase still bound, per cent of control (PLK3 (human))	kinase still bound, per cent of control (MAP2K3 (human))	kinase still bound, per cent of control (RPS6KA5 KD2 (human))	kinase still bound, per cent of control (INSR (human))	kinase still bound, per cent of control (LIMK2 (human))	kinase still bound, per cent of control (CLK3 (human))	kinase still bound, per cent of control (ULK2 (human))	kinase still bound, per cent of control (ROCK2 (human))	also measured
O=C1Nc2ccc(I)cc2/C1=C/c1cc(Br)c(O)c(Br)c1	1.9%	65%	36%	67%	100%	100%	83%	52%	47%	79%	56%	5%	86%	46%	63%	100%	77%	84%	90%	55%	kinase still bound, per cent of control (FLT3 (human)): 3.6%; kinase still bound, per cent of control (BRSK1 (human)): 85%; kinase still bound, per cent of control (BMPR1A (human)): 8.8%; kinase still bound, per cent of control (MAPK4 (human)): 100%; kinase still bound, per cent of control (CAMK2A (human)): 20%; kinase still bound, per cent of control (ADCK3 (human)): 100%; kinase still bound, per cent of control (PHKG2 (human)): 92%; kinase still bound, per cent of control (CSF1R (human)): 71%; kinase still bound, per cent of control (EPHA4 (human)): 100%; kinase still bound, per cent of control (TLK1 (human)): 100%; kinase still bound, per cent of control (DCLK1 (human)): 86%; kinase still bound, per cent of control (PAK7 (human)): 87%; kinase still bound, per cent of control (INSRR (human)): 81%; kinase still bound, per cent of control (FRK (human)): 45%; kinase still bound, per cent of control (DDR2 (human)): 73%; kinase still bound, per cent of control (CSNK1A1L (human)): 100%; kinase still bound, per cent of control (CAMK2G (human)): 40%; kinase still bound, per cent of control (STK11 (human)): 84%; kinase still bound, per cent of control (HIPK1 (human)): 11%; kinase still bound, per cent of control (SIK2 (human)): 84%
CN(C)C/C=C/C(=O)Nc1cccc(Nc2ncc3c(n2)N(C)c2ccccc2C(=O)N3C)c1	69%	0.65%	100%	6.2%	100%	100%	9.4%	6.7%	89%	100%	55%	0.1%	72%	100%	80%	100%	94%	82%	0.2%	58%	kinase still bound, per cent of control (FLT3 (human)): 73%; kinase still bound, per cent of control (BRSK1 (human)): 14%; kinase still bound, per cent of control (BMPR1A (human)): 0.65%; kinase still bound, per cent of control (MAPK4 (human)): 100%; kinase still bound, per cent of control (CAMK2A (human)): 32%; kinase still bound, per cent of control (ADCK3 (human)): 74%; kinase still bound, per cent of control (PHKG2 (human)): 25%; kinase still bound, per cent of control (CSF1R (human)): 0.1%; kinase still bound, per cent of control (EPHA4 (human)): 79%; kinase still bound, per cent of control (TLK1 (human)): 100%; kinase still bound, per cent of control (DCLK1 (human)): 4%; kinase still bound, per cent of control (PAK7 (human)): 36%; kinase still bound, per cent of control (INSRR (human)): 100%; kinase still bound, per cent of control (FRK (human)): 18%; kinase still bound, per cent of control (DDR2 (human)): 11%; kinase still bound, per cent of control (CSNK1A1L (human)): 100%; kinase still bound, per cent of control (CAMK2G (human)): 46%; kinase still bound, per cent of control (STK11 (human)): 100%; kinase still bound, per cent of control (HIPK1 (human)): 76%; kinase still bound, per cent of control (SIK2 (human)): 9%
